Assay results reported in patent publication US20240316047A1, “INHIBITORS OF RNA HELICASE DHX9 AND USES THEREOF” (ACCENT THERAPEUTICS, INC., priority 2022, published 2024).

Target: Human recombinant DHX9 protein (Homo sapiens (Human), UniProt Q08211)
Test: DHX9 ATPase assay (ADP-Glo)
Type: biochemical
Conditions: for IC50: read-out: DHX9 Biochemical Inflection Point

Sequence of Human recombinant DHX9 protein (Q08211 whole entry): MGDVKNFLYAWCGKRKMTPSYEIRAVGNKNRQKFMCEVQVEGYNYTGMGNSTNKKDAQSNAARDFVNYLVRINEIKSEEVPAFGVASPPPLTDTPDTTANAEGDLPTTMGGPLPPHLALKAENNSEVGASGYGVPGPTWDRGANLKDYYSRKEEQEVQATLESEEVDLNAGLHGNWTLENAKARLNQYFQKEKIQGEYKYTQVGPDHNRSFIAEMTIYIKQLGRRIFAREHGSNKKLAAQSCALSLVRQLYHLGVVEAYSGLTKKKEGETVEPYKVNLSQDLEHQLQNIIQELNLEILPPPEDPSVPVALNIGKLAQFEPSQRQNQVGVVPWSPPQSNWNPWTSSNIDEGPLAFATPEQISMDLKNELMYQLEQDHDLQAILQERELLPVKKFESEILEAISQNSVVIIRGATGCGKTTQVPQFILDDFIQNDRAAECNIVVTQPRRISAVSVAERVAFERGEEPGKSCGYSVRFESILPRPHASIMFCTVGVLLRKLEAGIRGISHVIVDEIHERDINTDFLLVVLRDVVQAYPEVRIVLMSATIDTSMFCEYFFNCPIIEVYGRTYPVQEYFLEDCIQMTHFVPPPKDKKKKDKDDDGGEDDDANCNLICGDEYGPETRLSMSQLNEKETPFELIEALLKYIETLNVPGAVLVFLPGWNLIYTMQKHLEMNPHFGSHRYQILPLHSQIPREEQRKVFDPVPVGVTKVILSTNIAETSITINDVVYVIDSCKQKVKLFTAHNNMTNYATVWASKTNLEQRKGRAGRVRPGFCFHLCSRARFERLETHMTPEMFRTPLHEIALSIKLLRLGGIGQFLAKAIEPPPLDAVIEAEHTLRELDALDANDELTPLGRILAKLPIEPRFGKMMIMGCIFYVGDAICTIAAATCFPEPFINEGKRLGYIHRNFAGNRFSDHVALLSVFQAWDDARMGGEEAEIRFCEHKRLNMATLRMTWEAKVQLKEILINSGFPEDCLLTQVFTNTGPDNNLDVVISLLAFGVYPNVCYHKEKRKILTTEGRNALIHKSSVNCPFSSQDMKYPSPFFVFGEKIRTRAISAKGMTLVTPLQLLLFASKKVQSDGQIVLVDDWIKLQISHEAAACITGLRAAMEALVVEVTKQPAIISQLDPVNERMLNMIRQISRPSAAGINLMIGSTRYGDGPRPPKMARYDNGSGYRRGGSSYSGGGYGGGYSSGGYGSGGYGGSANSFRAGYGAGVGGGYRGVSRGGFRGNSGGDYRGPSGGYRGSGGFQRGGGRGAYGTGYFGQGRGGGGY

| SMILES | DHX9 Biochemical Max Inhibition | IC50 |
| --- | --- | --- |
| CS(=O)(=O)Nc1cc(Cl)cc(NC(=O)c2cnn(-c3ncccc3OCc3ccc(F)cc3)c2)c1 [Example 69] | 62.3% | 113 nM |
| Cc1sc(C(=O)Nc2cc(Cl)cc(NS(C)(=O)=O)c2)cc1N1C(=O)N(c2ccccn2)C(C)(C)C1=O [Example 685] | 64.3 | 117 nM |
| CS(=O)(=O)Nc1cc(Cl)cc(NC(=O)c2cc(C(=O)N3CCN(c4ccccc4)CC3)n(-c3ccccn3)c2)c1 [Example 654] | 72.7 | 21.6 nM |
| Cc1noc(C)c1COc1cc(F)cnc1-c1cc(C(=O)Nc2cc(Cl)cc(NS(C)(=O)=O)c2)cn1C [Example 725] | 74 | 36.5 nM |
| Cn1cc(C(=O)Nc2cc(Cl)cc(NS(C)(=O)=O)c2)cc1-c1ncc(OC(C)(C)C)cc1F [Example 557] | 59.8 | 37.1 nM |
| Cc1sc(C(=O)Nc2cc(Cl)cc(NS(C)(=O)=O)c2)cc1-c1c(F)cncc1F [Example 362] | 88.6% | 44.3 nM |
| Cc1cccc(OCc2cccc(F)c2)c1-n1cc(C(=O)Nc2cc(Cl)cc(NS(C)(=O)=O)c2)cn1 [Example 255] | 75.8% | 72.4 nM |
| Cn1cc(C(=O)Nc2cc(Cl)cc(NS(C)(=O)=O)c2)cc1-c1ccc(N2CC3(C2)CC(F)(F)C3)cn1 [Example 498] | 65.4 | 38 nM |
| CS(=O)(=O)Nc1cc(Cl)cc(NC(=O)c2cc3ccc(Cl)cn3c2)c1 [Example 299] | 56.7% | 335 nM |
| Cc1cccc(C#N)c1-n1cc(C(=O)Nc2cc(Br)cc(NS(C)(=O)=O)c2)cn1 [Example 44] | 60.3% | 137 nM |
| Cn1cc(C(=O)Nc2cc(Cl)cc(NS(C)(=O)=O)c2)cc1-c1ccc(N2CCN(C(=O)C3CC3)CC2)cn1 [Example 594] | 80.1 | 10.9 nM |
| CS(=O)(=O)Nc1cc(Cl)cc(NC(=O)c2cnn([C@H]3CCC[C@H](O)C3)c2)c1 (single isomer, unassigned) [Example 152a] | 63.2% | 138 nM |
| CC(=O)NC1CC2(C1)CC(n1cc(C(=O)Nc3cc(Cl)cc(NS(C)(=O)=O)c3)cn1)C2 (centres unmarked) [Example 310] | 70.3% | 102 nM |
| Cc1sc(C(=O)Nc2cc(Cl)cc(NS(C)(=O)=O)c2)cc1-c1ncc(OC(C)(C)CO)cn1 [Example 678] | 71.3 | 5.7 nM |
| Cc1sc(C(=O)Nc2cc(Cl)cc(NS(C)(=O)=O)c2)cc1-c1ncc(N2CC(C(F)(F)F)C2)cn1 [Example 489] | 68.7 | 29.9 nM |
| CS(=O)(=O)Nc1cc(Cl)cc(NC(=O)c2cnn(-c3ccccc3Oc3ncccn3)c2)c1 [Example 263] | 63.8% | 170 nM |
| CNc1cnc(-c2cc(C(=O)Nc3cc(Cl)cc(NS(C)(=O)=O)c3)sc2C)nc1 [Example 616, N-(3-chloro-5-methanesulfonamidophenyl)-5-methyl-4-[5-(methylamino)pyrimidin-2-yl]thiophene-2-carboxamide] | 84.2 | 11.4 nM |
| CS(=O)(=O)Nc1cc(Cl)cc(NC(=O)c2cc(N3CCN(CC(F)(F)F)CC3)cs2)c1 [Example 246] | 67.5% | 186 nM |
| Cn1cc(C(=O)Nc2cc(Cl)cc(NS(C)(=O)=O)c2)cc1-c1ncc(N2CCC(F)(F)C2)cc1F [Example 525] | 63.3 | 43.3 nM |
| Cc1cc(C)c2cc(C(=O)Nc3cc(Cl)cc(NS(C)(=O)=O)c3)cn2c1 [Example 328] | 67.6% | 422 nM |
| COc1cnn(-c2cc(C(=O)Nc3cc(Cl)cc(NS(C)(=O)=O)c3)sc2C)c1 [Example 436] | 81.4 | 15.7 nM |
| Cc1sc(C(=O)Nc2cc(Cl)cc(NS(C)(=O)=O)c2)cc1-c1ncc(S(C)(=O)=O)cn1 [Example 711] | 69.3 | 32.1 nM |
| CCS(=O)(=O)Nc1cc(Cl)cc(NC(=O)c2cc(-c3ncc(N4CC(F)(F)C4)cn3)c(C)s2)c1 [Example 463] | 77.1 | 8.5 nM |
| CS(=O)(=O)Nc1cc(Cl)cc(NC(=O)c2cc(-c3ncccc3OCc3cccnc3)cs2)c1 [Example 217] | 69.6% | 2.1 nM |
| CC(c1ccccc1)n1cc(C(=O)Nc2cc(Cl)cc(NS(C)(=O)=O)c2)cn1 (centres unmarked) [Example 142, N-(3-chloro-5-(methylsulfonamido)phenyl)-1-(1-phenylethyl)-1H-pyrazole-4-carboxamide] | 62% | 514 nM |
| Cc1sc(C(=O)Nc2cc(Cl)cc(NS(C)(=O)=O)c2)cc1-c1ccc(C#N)cn1 [Example 377] | 70.6% | 21.2 nM |

| SMILES | DHX9 Biochemical Max Inhibition | IC50 |
| --- | --- | --- |
| CS(=O)(=O)Nc1cc(F)cc(NC(=O)c2c[nH]c(Br)c2)c1 [Example 2] | 64.8% | 173 nM |
| Cc1cc(C(=O)Nc2cc(Cl)cc(NS(C)(=O)=O)c2)cn1-c1ncc(N2CCC(F)(F)C2)cn1 [Example 409] | 65.7 | 29.7 nM |
| Cc1cccnc1-c1nc(C(=O)Nc2cc(Cl)cc(NS(C)(=O)=O)c2)cn1C [Example 156] | 51.2% | 695 nM |
| CN(C)C(=O)c1cccc(OCc2cccc(F)c2)c1-n1cc(C(=O)Nc2cc(Cl)cc(NS(C)(=O)=O)c2)cn1 [Example 717] | 68.1 | 199 nM |
| Cc1sc(C(=O)Nc2cc(Cl)cc(NS(C)(=O)=O)c2)cc1-c1ncc(OC2CN(C)C2)cn1 [Example 609, N-(3-chloro-5-methanesulfonamidophenyl)-5-methyl-4-{5-[(1-methylazetidin-3-yl)oxy]pyrimidin-2-yl}thiophene-2-carboxamide] | 72.7 | 3 nM |
| CS(=O)(=O)Nc1cc(Cl)cc(NC(=O)c2cc3c(C(F)(F)F)cccn3c2)c1 [Example 302] | 54.6% | 640 nM |
| CS(=O)(=O)Nc1cc(Cl)cc(NC(=O)c2cc(C3CCNCC3)cs2)c1 [Example 243] | 73.2% | 92.3 nM |
| Cc1sc(C(=O)Nc2cc(Cl)cc(NS(C)(=O)=O)c2)cc1-c1ncc(N(C)S(C)(=O)=O)cn1 [Example 720] | 72.6 | 25.2 nM |
| Cn1cc(C(=O)Nc2cc(Cl)cc(NS(C)(=O)=O)c2)cc1-c1ncc(F)cc1/C=C/c1cncc(F)c1 [Example 729] | 45.5 | 114 nM |
| CS(=O)(=O)Nc1cc(Cl)cc(NC(=O)c2cnn(-c3cnc(N4CCOCC4)cn3)c2)c1 [Example 388] | 52.8% | 381 nM |
| CS(=O)(=O)Nc1cc(Cl)cc(NC(=O)c2coc(-c3ccccc3)c2)c1 [Example 125] | 56.7% | 330 nM |
| Cc1cc(C(=O)Nc2cc(Br)cc(NS(C)(=O)=O)c2)cn1C1CCCCC1 [Example 85, N-(3-bromo-5-(methylsulfonamido)phenyl)-1-cyclohexyl-5-methyl-1H-pyrrole-3-carboxamide] | 59.5% | 99 nM |
| CS(=O)(=O)Nc1cc(Cl)cc(NC(=O)c2cc(-c3ncccc3OCc3ccccc3)c(CO)s2)c1 [Example 216] | 78% | 4.4 nM |
| Cc1sc(C(=O)Nc2cc(Cl)cc(NS(C)(=O)=O)c2)cc1-c1ccc(N2CC(C(F)(F)F)C2)cn1 [Example 496] | 71.9 | 19.5 nM |
| Cn1cc(C(=O)Nc2cc(Cl)cc(NS(C)(=O)=O)c2)cc1-c1ncc(F)cc1F [Example 540, N-(3-chloro-5-methanesulfonamidophenyl)-5-(3,5-difluoropyridin-2-yl)-1-methyl-1H-pyrrole-3-carboxamide] | 67.5 | 17.4 nM |
| CC(=O)N1CCN(c2ccnc(-n3cc(C(=O)Nc4cc(Cl)cc(NS(C)(=O)=O)c4)cn3)c2)CC1 [Example 148, 1-(4-(4-acetylpiperazin-1-yl)pyridin-2-yl)-N-(3-chloro-5-(methylsulfonamido)phenyl)-1H-pyrazole-4-carboxamide] | 63.3% | 18.5 nM |
| Cc1sc(C(=O)Nc2cc(Cl)cc(NS(C)(=O)=O)c2)cc1N1C(=O)N(C)C(C)(c2ccccn2)C1=O (centres unmarked) [Example 660] | 67.1 | 2120 nM |
| CS(=O)(=O)Nc1cc(Cl)cc(NC(=O)c2cc(C(=O)N3CCOCC3)n(-c3ccccn3)c2)c1 [Example 731] | 69.1 | 63.5 nM |
| CCS(=O)(=O)Nc1cc(Cl)cc(NC(=O)c2cc(C)n(-c3ccc(N4CCOCC4)cn3)c2)c1 [Example 249] | 64.1% | 2.8 nM |
| CS(=O)(=O)Nc1cc(Cl)cc(NC(=O)c2cc3cnccn3c2)c1 [Example 330] | 61.9% | 88 nM |
| Cn1cc(C(=O)Nc2cc(Cl)cc(NS(C)(=O)=O)c2)cc1-c1ccc(Cl)cn1 [Example 576] | 68.1 | 28.5 nM |
| CS(=O)(=O)Nc1cc(Cl)cc(NC(=O)c2cnn(-c3ncccc3OCc3ccccc3)c2)c1 [Example 68] | 68.7% | 23.8 nM |
| CCOc1cnc(-n2cc(C(=O)Nc3cc(Cl)cc(NS(C)(=O)=O)c3)cc2C(F)(F)F)nc1 [Example 693] | 64.9 | 408 nM |
| CS(=O)(=O)Nc1cc(Br)cc(NC(=O)c2cnn(-c3ccccc3CO)c2)c1 [Example 161, N-(3-bromo-5-(methylsulfonamido)phenyl)-1-(2-(hydroxymethyl)phenyl)-1H-pyrazole-4-carboxamide] | 44.9% | 48.4 nM |
| CS(=O)(=O)Nc1cc(Cl)cc(NC(=O)c2cccc(-c3ccncc3)c2)c1 [Example 14] | 59.6% | 353 nM |
| Cn1cc(C(=O)Nc2cc(Cl)cc(NS(C)(=O)=O)c2)cc1-c1ccc(N2CC3(COC3)C2)cn1 [Example 277] | 72.5% | 4.3 nM |
